{"source": "patent US4618682A", "about": "“2-amino-4,5-dihydro-1H-imidazole-1-carboxanilides” (McNeilab, Inc., priority 1985, dated 1986)", "key": {"[1]": {"system": "Spontaneously hypertensive rat", "experiment": "Rodent Antihypertensive Screen (arterial pressure and heart rate, aortic cannula)", "type": "in vivo, adult spontaneously hypertensive rats (Charles River)", "conditions": "spontaneously hypertensive rat", "text": "This test evaluates compounds for effects on arterial pressure and heart rate. In this test, the arterial pressure of adult spontaneously hypertensive rats (Charles River) is monitored directly via an aortic cannula. Rats are anesthetized with an inhalation anesthetic (methoxyflurane). The left carotid artery is isolated and cannulated. The tip of the cannula is advanced to the aorta and the cannula is exteriorized behind the neck at the level of the scapula. Animals are placed in individual cages and allowed to recover from the anesthetic and are kept unrestrained. The arterial cannula is connected to the pressure transducer which is attached to the recorder. Heart rate is determined from the arterial pressure recording. The test compounds are administered either orally (p.o.) by gavage or by intraperitoneal (i.p.) injection. The arterial pressure and heart rate are monitored for a minumum of 24 hours. A test compound is considered to be active as an antihypertensive agent if the mean arterial pressure (MAP) indicates a fall of >15 mm of Hg. Each animal serves as his own control. The results of this test employing at least 3 rats per dose level for each compound and performed with various compounds of the present invention are shown in Table I."}, "Gastric fistula rat": {"system": "Gastric fistula rat", "experiment": "acute gastric fistula rat test (antisecretory screen)", "type": "in vivo, Female Sprague-Dawley rats", "conditions": "for inhibition in vivo at 20 mg/kg: intraduodenal, 20 mg/kg I.D., read-out: % Inhibition of gastric secretion; for ED50: po, 1 hr", "protocol": "The principal antisecretory screen is the acute gastric fistula rat test which is carried out as follows: Female Sprague-Dawley rats are used for this study. The weights range from 125-250 gms; however, weights in any given test have a range of ±20 gms. The rats are fasted 24 hours before testing, water is given ad lib. At the time of fasting, the rats are placed in individual cages with wide mesh bottoms. This eliminates the problem of cannibalism and coprophagia. On the day of testing, the rats are weighed beforehand to determine the weight range and to allow for even distribution. Surgery is carried out under light ether anesthesia. As soon as the rat is anesthetized, its teeth are removed using a small pinch pliers. A midline incision is made on the abdomen about 11/2 cm long and the stomach is exposed. If, at this point, the stomach is filled with food or fecal material, the rat is discarded except for orally administered rats. In this case, the stomach contents are gently squeezed into the duodenum. Using a 4-0 polyester fiber suture, a purse string stitch is placed on the fundic portion of the stomach taking care to avoid any blood vessels in the area. A small nick is made into the stomach in the center of the purse string and a cannula, consisting of a small vinyl tube with a flange on one end, is put into the stomach and the purse string is closed tightly around the flange. Immediately following this, the rat is dosed intraduodenally using a volume of 0.5 ml per 100 gm body weight. The abdominal wall and skin are closed simultaneously with three to four 18 mm wound clips. The rat is then placed in a box containing a longitudinal slit which allows the cannula to hang freely and the rat is able to move about unencumbered. At the completion of the procedure, the time is marked 0 minutes. The rat is allowed to stabilize for 30 minutes, at which time the collection tube is discarded and replaced with a clean collection tube to receive the gastric juice. Only a one-hour collection is made for a screening study. In evaluation studies, one- and two-hour collections are made. At the end of the study, the cannula is pulled out and the rat is sacrificed. The gastric contents collected are drained into a centrifuge tube and centrifuged to pack down the sediment. The volume is read and a 1 ml aliquot of the supernatant is put into a beaker containing distilled water and titrated to pH 7 using 0.01 N NaOH. Mean values are determined for volume, titratable acid and total acid output where volume equals total ml of gastric juice minus sediment, titratable acid (mEq/1) equals amount of 0.01 N NaOH needed to titrate the acid to pH 7 times 10 and total acid output equals titratable acid times volume. Results are reported in percent inhibition over control values. In studies using oral administration, the drugs are dosed in a volume of 1 ml per 100 gm body weight one hour before surgery (pretreatment equals 90 minutes). In subcutaneous studies, the drug may be given immediately after the surgical procedure (pretreatment equals 30 minutes) or after the 30-minute stabilization period when the collection tube is changed (pretreatment time equals 0 minutes). The volume used in subcutaneous studies is 0.2 ml per 100 gm body weight."}}, "note": "Structures can show the parent of a compound that is named as a salt."}
{"smiles": "Cl.NC1=NCCN1C(=O)Nc1c(Cl)cc(Cl)cc1Cl", "note": "[Example 12, 2-Amino-4,5-dihydro-N-(2,4,6-trichlorophenyl)-1H-imidazole-1-carboxamide Monohydrochloride]", "values": [{"measurement": "Duration", "setting": "[1]; 35 mg/kg p.o.", "value": 0.5, "unit": "h"}, {"measurement": "Effect on heart rate", "setting": "[1]; 35 mg/kg p.o.", "value": -39, "unit": "beats/min"}, {"measurement": "Max. decr. in MAP", "setting": "[1]; 35 mg/kg p.o.", "value": 18, "unit": "mm Hg"}, {"measurement": "inhibition in vivo at 20 mg/kg", "setting": "Gastric fistula rat", "value": 97, "unit": "%"}]}
{"smiles": "Cl.NC1=NCCN1C(=O)Nc1ccccc1C(F)(F)F", "note": "[Example 25, 2-Amino-4,5-dihydro-N-(2-trifluoromethylphenyl)-1H-imidazole-1-carboxamide Monohydrochloride]", "values": [{"measurement": "Duration", "setting": "[1]; 35 mg/kg p.o.", "value": 0.5, "unit": "h"}, {"measurement": "Effect on heart rate", "setting": "[1]; 35 mg/kg p.o.", "value": -21, "unit": "beats/min"}, {"measurement": "Max. decr. in MAP", "setting": "[1]; 35 mg/kg p.o.", "value": 32, "unit": "mm Hg"}]}
{"smiles": "Cc1cccc(Cl)c1NC(=O)N1CCN=C1N", "note": "[Example 15, 2-Amino-N-(2-chloro-6-methylphenyl)-4,5-dihydro-1H-imidazole-1-carboxamide Monohydrochloride Hydrate (8:1)]", "values": [{"measurement": "inhibition in vivo at 20 mg/kg", "setting": "Gastric fistula rat", "value": 77, "unit": "%"}]}
{"smiles": "COc1ccc(NC(=O)N2CCN=C2N)cc1OC", "note": "[Example 4, 2-Amino-N-(3,4-dimethoxyphenyl)-4,5-dihydro-1H-imidazole-1-carboxamide Monohydrochloride Hydrate (4:1)]", "values": [{"measurement": "Duration", "setting": "[1]; 100 mg/kg p.o.", "value": 11, "unit": "h"}, {"measurement": "Effect on heart rate", "setting": "[1]; 100 mg/kg p.o.", "value": -215, "unit": "beats/min"}, {"measurement": "Max. decr. in MAP", "setting": "[1]; 100 mg/kg p.o.", "value": 47, "unit": "mm Hg"}]}
{"smiles": "Cc1ccccc1NC(=O)N1CCN=C1N", "note": "[Example 24, 2-Amino-4,5-dihydro-N-(2-methylphenyl)-1H-imidazole-1-carboxamide Monohydrochloride]", "values": [{"measurement": "inhibition in vivo at 20 mg/kg", "setting": "Gastric fistula rat", "value": 65, "unit": "%"}]}
{"smiles": "Cl.NC1=NCCN1C(=O)Nc1cc(Cl)ccc1Cl", "note": "[Example 7, 2-Amino-N-(2,5-dichlorophenyl)-4,5-dihydro-1H-imidazole-1carboxamide Monohydrochloride]", "values": [{"measurement": "Duration", "setting": "[1]; 35 mg/kg p.o.", "value": 1.0, "unit": "h"}, {"measurement": "Effect on heart rate", "setting": "[1]; 35 mg/kg p.o.", "value": -48, "unit": "beats/min"}, {"measurement": "Max. decr. in MAP", "setting": "[1]; 35 mg/kg p.o.", "value": 37, "unit": "mm Hg"}]}
{"smiles": "NC1=NCCN1C(=O)Nc1cc(Cl)cc(Cl)c1", "note": "[Example 6, 2-Amino-N-(3,5-dichlorophenyl)-4,5-dihydro-1H-imidazole-1-carboxamide Monohydrochloride Hydrate (16:1)]", "values": [{"measurement": "Duration", "setting": "[1]; 35 mg/kg p.o.", "value": 1.0, "unit": "h"}, {"measurement": "Effect on heart rate", "setting": "[1]; 35 mg/kg p.o.", "value": -21, "unit": "beats/min"}, {"measurement": "Max. decr. in MAP", "setting": "[1]; 35 mg/kg p.o.", "value": 22, "unit": "mm Hg"}, {"measurement": "inhibition in vivo at 20 mg/kg", "setting": "Gastric fistula rat", "value": 75, "unit": "%"}, {"measurement": "ED50", "setting": "Gastric fistula rat", "value": 22.3, "unit": "mg/kg"}]}
{"smiles": "Cl.NC1=NCCN1C(=O)Nc1ccc(C(F)(F)F)cc1", "note": "[Example 14, 2-Amino-4,5-dihydro-N-(4-trifluoromethylphenyl)-1H-imidazole-1-carboxamide Monohydrochloride]", "values": [{"measurement": "Duration", "setting": "[1]; 35 mg/kg p.o.", "value": 5.0, "unit": "h"}, {"measurement": "Effect on heart rate", "setting": "[1]; 35 mg/kg p.o.", "value": -98, "unit": "beats/min"}, {"measurement": "Max. decr. in MAP", "setting": "[1]; 35 mg/kg p.o.", "value": 50, "unit": "mm Hg"}, {"measurement": "inhibition in vivo at 20 mg/kg", "setting": "Gastric fistula rat", "value": 70, "unit": "%"}, {"measurement": "ED50", "setting": "Gastric fistula rat", "value": 35.5, "unit": "mg/kg"}]}
{"smiles": "NC1=NCCN1C(=O)Nc1ccccc1", "note": "[Example 23, 2-Amino-4,5-dihydro-N-phenyl-1H-imidazole-1-carboxamide Monohydrochloride Hydrate (5:3)]", "values": [{"measurement": "inhibition in vivo at 20 mg/kg", "setting": "Gastric fistula rat", "value": 92, "unit": "%"}]}
{"smiles": "COc1cccc(NC(=O)N2CCN=C2N)c1", "note": "[Example 19, 2-Amino-4,5-dihydro-N-(3-methoxyphenyl)-1H-imidazole-1carboxamide Monohydrochloride Hydrate (5:1)]", "values": [{"measurement": "inhibition in vivo at 20 mg/kg", "setting": "Gastric fistula rat", "value": 74, "unit": "%"}]}
{"smiles": "COc1ccc(NC(=O)N2CCN=C2N)cc1.Cl", "note": "[Example 20, 2-Amino-4,5-dihydro-N-(4-methoxyphenyl)-1H-imidazole-1carboxamide Monohydrochloride]", "values": [{"measurement": "Duration", "setting": "[1]; 35 mg/kg p.o.", "value": 1.0, "unit": "h"}, {"measurement": "Effect on heart rate", "setting": "[1]; 35 mg/kg p.o.", "value": -38, "unit": "beats/min"}, {"measurement": "Max. decr. in MAP", "setting": "[1]; 35 mg/kg p.o.", "value": 16, "unit": "mm Hg"}]}
{"smiles": "NC1=NCCN1C(=O)Nc1c(Br)cccc1Br", "note": "[Example 16, 2-Amino-4,5-dihydro-N-(2,6-dibromophenyl)-1H-imidazole-1-carboxamide Monohydrochloride]", "values": [{"measurement": "inhibition in vivo at 20 mg/kg", "setting": "Gastric fistula rat", "value": 64, "unit": "%"}]}
{"smiles": "CCc1cccc(C)c1NC(=O)N1CCN=C1N.Cl", "note": "[Example 17, 2-Amino-4,5-dihydro-N-(2-ethyl-6-methylphenyl)-1H-imidazole-1carboxamide Monohydrochloride]", "values": [{"measurement": "inhibition in vivo at 20 mg/kg", "setting": "Gastric fistula rat", "value": 91, "unit": "%"}, {"measurement": "ED50", "setting": "Gastric fistula rat", "value": 24.5, "unit": "mg/kg"}]}
